Data taken from patent US20150283237A1, “CTLA-4 BLOCKADE WITH METRONOMIC CHEMOTHERAPY FOR THE TREATMENT OF CANCER” (priority 2014, published 2015).
Where a name gives a salt, the structure may show the parent alone.

How the values were obtained:
[1] = test system: EMT-6/P tumors; assay: Growth and event-free survival of subcutaneously implanted EMT-6/P tumors in BALB/c mice; type: in vivo, mouse; details: first experiment, FIG. 1A; s.c. EMT-6/P tumors in BALB/c mice, therapy from 50 mm3
[2] = mouse, in vivo

Structure (SMILES)	impact of therapy on tumor growth [1]	body weight change / toxicity [2]
O=P1(N(CCCl)CCCl)NCCCO1 (centres unmarked) [bolus with low dose CTX, Cyclophosphamide]	minimal reduction in tumor growth	–
Nc1ccn([C@@H]2O[C@H](CO)[C@@H](O)C2(F)F)c(=O)n1 [gemcitabine, Gemcitabine hydrochloride]	–	slight weight drop
